≈ marks a conversion by molar mass, not a printed value.
Tests used:
Cytochrome P450 2C9 = Cytochrome P450 2C9 (Homo sapiens, UniProt P11712); experiment: Inhibition of CYP2C9 in human liver microsomes using tolbutamide as substrate preincubated for 10 mins with substrate followed by NADPH addition measured after 15 mins by LC/MS/MS analysis; assay type: ADME
Nakaseomyces glabratus [1] = experiment: Antifungal activity against Candida glabrata after 24 hrs by serial dilution method; assay type: functional
Cytochrome P450 2D6 = Cytochrome P450 2D6 (Homo sapiens, UniProt P10635); experiment: Inhibition of CYP2D6 in human liver microsomes using dextromethorphan as substrate preincubated for 10 mins with substrate followed by NADPH addition measured after 15 mins by LC/MS/MS analysis; assay type: ADME
Chain of Cytochrome P450 2D6 (P10635 whole entry): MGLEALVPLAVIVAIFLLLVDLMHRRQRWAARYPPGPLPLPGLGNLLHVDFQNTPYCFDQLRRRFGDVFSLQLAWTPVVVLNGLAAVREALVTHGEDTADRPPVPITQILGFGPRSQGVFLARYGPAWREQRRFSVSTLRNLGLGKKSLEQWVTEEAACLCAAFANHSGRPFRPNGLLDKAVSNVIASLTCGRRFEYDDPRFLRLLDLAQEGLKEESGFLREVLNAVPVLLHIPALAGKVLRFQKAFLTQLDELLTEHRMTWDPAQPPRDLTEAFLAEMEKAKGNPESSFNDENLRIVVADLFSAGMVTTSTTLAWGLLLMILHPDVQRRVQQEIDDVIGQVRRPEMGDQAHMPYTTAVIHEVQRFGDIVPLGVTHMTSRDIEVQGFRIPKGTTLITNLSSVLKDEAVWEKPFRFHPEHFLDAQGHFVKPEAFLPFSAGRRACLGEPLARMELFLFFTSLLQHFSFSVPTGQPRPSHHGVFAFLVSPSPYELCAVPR

Cytochrome P450 1A2 = target: T1, Cytochrome P450 1A2 (Homo sapiens, UniProt P05177); experiment: Inhibition of CYP1A2 in human liver microsomes using phenacetin as substrate preincubated for 10 mins with substrate followed by NADPH addition measured after 15 mins by LC/MS/MS analysis; assay type: ADME
T1 sequence (P05177 whole entry): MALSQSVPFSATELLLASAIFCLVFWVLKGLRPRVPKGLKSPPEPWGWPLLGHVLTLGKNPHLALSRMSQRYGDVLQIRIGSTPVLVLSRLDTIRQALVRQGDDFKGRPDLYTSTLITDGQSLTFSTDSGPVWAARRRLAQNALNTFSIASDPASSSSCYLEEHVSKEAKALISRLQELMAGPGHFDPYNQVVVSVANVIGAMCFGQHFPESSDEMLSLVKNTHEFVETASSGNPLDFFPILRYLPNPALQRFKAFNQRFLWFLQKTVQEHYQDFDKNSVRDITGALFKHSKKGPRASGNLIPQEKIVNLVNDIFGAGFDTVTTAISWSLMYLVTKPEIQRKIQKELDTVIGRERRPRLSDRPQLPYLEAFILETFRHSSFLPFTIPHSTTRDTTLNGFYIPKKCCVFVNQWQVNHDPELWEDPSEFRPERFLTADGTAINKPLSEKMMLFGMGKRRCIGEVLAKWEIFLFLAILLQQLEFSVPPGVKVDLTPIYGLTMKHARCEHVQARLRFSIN

Candida albicans [2] = experiment: Antifungal activity against Candida albicans SC5314 after 24 hrs by serial dilution method; assay type: functional; settings: SC5314, 24 h
Candida albicans [3] = experiment: Antifungal activity against Candida albicans Y0109 after 24 hrs by serial dilution method; assay type: functional; settings: Y0109, 24 h
Trichophyton rubrum [4] = experiment: Antifungal activity against Trichophyton rubrum by serial dilution method; assay type: functional
Nannizzia gypsea [5] = experiment: Antifungal activity against Microsporum gypseum by serial dilution method; assay type: functional
Cytochrome P450 2C19 = Cytochrome P450 2C19 (Homo sapiens, UniProt P33261); experiment: Inhibition of CYP2C19 in human liver microsomes using mephenytoin as substrate preincubated for 10 mins with substrate followed by NADPH addition measured after 15 mins by LC/MS/MS analysis; assay type: ADME
Chain of Cytochrome P450 2C19 (P33261 whole entry): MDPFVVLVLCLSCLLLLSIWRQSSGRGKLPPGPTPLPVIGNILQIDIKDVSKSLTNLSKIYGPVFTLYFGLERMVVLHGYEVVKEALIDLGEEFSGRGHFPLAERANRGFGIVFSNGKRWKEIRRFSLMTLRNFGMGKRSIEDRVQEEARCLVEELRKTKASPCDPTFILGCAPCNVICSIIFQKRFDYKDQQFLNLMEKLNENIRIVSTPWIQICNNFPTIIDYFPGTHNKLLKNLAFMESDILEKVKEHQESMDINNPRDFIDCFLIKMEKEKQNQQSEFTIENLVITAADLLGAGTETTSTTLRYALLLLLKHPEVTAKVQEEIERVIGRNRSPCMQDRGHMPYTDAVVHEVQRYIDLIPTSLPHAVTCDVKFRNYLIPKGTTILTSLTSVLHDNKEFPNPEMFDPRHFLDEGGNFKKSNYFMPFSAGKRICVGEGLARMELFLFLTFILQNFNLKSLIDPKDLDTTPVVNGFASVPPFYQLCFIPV

Aspergillus fumigatus = experiment: Antifungal activity against Aspergillus fumigatus after 48 hrs by serial dilution method; assay type: functional
Cryptococcus neoformans [6] = experiment: Antifungal activity against Cryptococcus neoformans after 72 hrs by serial dilution method; assay type: functional
Candida parapsilosis [7] = experiment: Antifungal activity against Candida parapsilosis ATCC 22019 after 24 hrs by serial dilution method; assay type: functional; settings: Lodderomyces parapsilosis, ATCC 22019, 24 h
Candida parapsilosis [8] = experiment: Potency index, ratio of VT-1161 MIC80 to compound MIC80 for Candida parapsilosis ATCC 22019; assay type: functional
Cryptococcus neoformans [9] = experiment: Potency index, ratio of VT-1161 MIC80 to compound MIC80 for Cryptococcus neoformans; assay type: functional
Candida albicans [10] = experiment: Potency index, ratio of VT-1161 MIC80 to compound MIC80 for Candida albicans Y0109; assay type: functional
Candida albicans [11] = experiment: Potency index, ratio of VT-1161 MIC80 to compound MIC80 for Candida albicans SC5314; assay type: functional
Nannizzia gypsea [12] = experiment: Potency index, ratio of VT-1161 MIC80 to compound MIC80 for Microsporum gypseum; assay type: functional
Nakaseomyces glabratus [13] = experiment: Potency index, ratio of VT-1161 MIC80 to compound MIC80 for Candida glabrata; assay type: functional
Trichophyton rubrum [14] = experiment: Potency index, ratio of VT-1161 MIC80 to compound MIC80 for Trichophyton rubrum; assay type: functional

Chain of Cytochrome P450 2C9 (P11712 whole entry): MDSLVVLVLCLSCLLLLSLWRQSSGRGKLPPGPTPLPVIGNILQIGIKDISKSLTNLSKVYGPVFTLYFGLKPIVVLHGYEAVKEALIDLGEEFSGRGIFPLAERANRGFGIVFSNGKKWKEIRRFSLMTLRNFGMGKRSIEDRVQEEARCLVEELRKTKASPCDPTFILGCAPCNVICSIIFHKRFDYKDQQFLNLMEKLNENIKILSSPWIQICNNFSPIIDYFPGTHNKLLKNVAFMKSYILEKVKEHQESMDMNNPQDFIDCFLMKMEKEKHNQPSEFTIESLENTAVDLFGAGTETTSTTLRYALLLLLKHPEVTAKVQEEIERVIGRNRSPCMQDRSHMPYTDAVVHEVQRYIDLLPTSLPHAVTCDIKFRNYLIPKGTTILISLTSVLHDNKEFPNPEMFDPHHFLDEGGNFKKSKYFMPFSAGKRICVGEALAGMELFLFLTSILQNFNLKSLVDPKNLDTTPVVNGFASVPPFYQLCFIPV

Structure (SMILES)	IC50 (Cytochrome P450 2C9) [µM]	MIC80 (Nakaseomyces glabratus [1]) [µg/mL]	IC50 (Cytochrome P450 2D6) [µM]	IC50 (Cytochrome P450 1A2) [µM]	MIC80 (Candida albicans [2]) [µg/mL]	MIC80 (Candida albicans [3]) [µg/mL]	MIC80 (Trichophyton rubrum [4]) [µg/mL]	MIC80 (Nannizzia gypsea [5]) [µg/mL]	IC50 (Cytochrome P450 2C19) [µM]	MIC80 (Aspergillus fumigatus) [µg/mL]	MIC80 (Cryptococcus neoformans [6]) [µg/mL]	MIC80 (Candida parapsilosis [7]) [µg/mL]	Ratio (Candida parapsilosis [8])	Ratio (Cryptococcus neoformans [9])	Ratio (Candida albicans [10])	Ratio (Candida albicans [11])	Ratio (Nannizzia gypsea [12])	Ratio (Nakaseomyces glabratus [13])	Ratio (Trichophyton rubrum [14])
O=c1n(-c2ccc(C(F)(F)C(O)(Cn3cnnn3)c3ccc(F)cc3F)nc2)cnn1C1CCCCC1 (stereo not drawn)	16.5	0.25 (≈ 0.482 µM)	21.1	14.5	0.25 (≈ 0.482 µM)	0.25 (≈ 0.482 µM)	2 (≈ 3.86 µM)	4 (≈ 7.71 µM)	14.6	> 64	0.125 (≈ 0.241 µM)	0.25 (≈ 0.482 µM)							
OC(Cn1cnnn1)(c1ccc(F)cc1F)C(F)(F)c1ccc(-c2ccc(OCC(F)(F)F)cc2)cn1 (racemic)	11.5	2 (≈ 3.79 µM)	8.7	28.9	1 (≈ 1.9 µM)	1 (≈ 1.9 µM)	2 (≈ 3.79 µM)	8 (≈ 15.2 µM)	8.5	> 8	1 (≈ 1.9 µM)	0.5 (≈ 0.948 µM)							
CC(C)(C)Cn1ncn(-c2ccc(C(F)(F)C(O)(Cn3cnnn3)c3ccc(F)cc3F)nc2)c1=O (stereo not drawn)	25	1 (≈ 1.97 µM)	7.7	25	0.5 (≈ 0.987 µM)	0.25 (≈ 0.494 µM)	2 (≈ 3.95 µM)	4 (≈ 7.9 µM)	20	> 64	0.5 (≈ 0.987 µM)	0.5 (≈ 0.987 µM)	2 - 4	2 - 4	2 - 4	2 - 4	2 - 4	2 - 4	2 - 4
O=c1n(-c2ccc(C(F)(F)C(O)(Cn3cnnn3)c3ccc(F)cc3F)nc2)cnn1C1CCCC1 (stereo not drawn)	11.9	2 (≈ 3.96 µM)	10.8	22.6	0.25 (≈ 0.496 µM)	0.25 (≈ 0.496 µM)	4 (≈ 7.93 µM)	16 (≈ 31.7 µM)	17	> 8	1 (≈ 1.98 µM)	0.125 (≈ 0.248 µM)							
COC1CCC(n2ncn(-c3ccc(C(F)(F)C(O)(Cn4cnnn4)c4ccc(F)cc4F)nc3)c2=O)CC1 (stereo not drawn)		4 (≈ 7.29 µM)			1 (≈ 1.82 µM)	0.5 (≈ 0.912 µM)	8 (≈ 14.6 µM)	> 64		> 64	1 (≈ 1.82 µM)	1 (≈ 1.82 µM)							

— ChEMBL document CHEMBL4184109, “Design, synthesis, and structure-activity relationship studies of novel tetrazole antifungal agents with potent activity, broad antifungal spectrum and high selectivity” (Bioorg Med Chem Lett, 2018)
